Experimental data: patent US20210123061A1, “METHODS AND COMPOSITIONS FOR TREATING INFLAMMATORY DISEASE OR DISORDER” (THE BRIGHAM AND WOMEN'S HOSPITAL, INC., priority 2018, published 2021)

Experiments:
[1] = tested on: STAT1 phosphorylation (Ser727, Tyr701); experiment: Immunoblot of STAT1 phosphorylation in IFN-γ-stimulated PBMC-derived macrophages; type: cell-based, human; details: 10 μM pre-treatment, IFN-γ, cell lysates
Procedure: (§1) FIGS. 3A-3F show RSK1 is activated through JAK signaling and its inhibition suppresses STAT1 phosphorylation at Ser727 in human primary macrophages in response to IFN-γ. (FIG. 3A) PBMC-derived macrophages were pre-treated with DMSO or 10 μM a pan-JAK inhibitor, pyridone-6, for two hours and then stimulated with IFN-γ for indicated time under serum starvation. Cell lysates were subjected to immunoprecipitation with normal IgG or anti-RSK1 followed by immunoblot analysis using the indicated antibodies. WCL, whole cell lysate. N=3 donors. (FIG. 3B) Immunoblots of cell lysates from macrophages that were transfected with control siRNA or RSK1 siRNA followed by stimulation with IFN-γ for indicated time under serum starvation. N=2 donors. (FIG. 3C) Immunoblots of cell lysates from macrophages that were pre-treated with DMSO or BI-D1870 for two hours and subsequently left unstimulated or stimulated with IFN-γ for 1 hour under serum starvation. (FIG. 3D) Densitometric based quantification (ImageJ Software) of STAT1-pSer727 in panel (FIG. 3C) plus three additional donors. The phosphorylation levels in cells pretreated with DMSO and stimulated were defined as 1.0. Data are means±SE. N=6 donors. **P<0.01 indicate significance for phosphorylation levels compared to control (treatment with DMSO and IFN-γ) by Dunnett's comparison test. (FIG. 3E) Macrophages were treated with DMSO or BI-d1870 for two hours followed by IFN-γ stimulation under serum starvation. Cell lysates were subjected to immunoprecipitation with normal IgG or anti-STAT1-pSer727 followed by SYPRO ruby stain or immunoblot analysis with the indicated antibodies. Immunoprecipitants in the gel (red square) were in-gel digested for parallel reaction monitoring (PRM) mass spectrometry. (FIG. 3F) Quantification of PRM ions (MS/MS ions) of the indicated STAT1 peptide harboring a phosphorylation at Ser727 (and oxidized methionine, m), generated from the digest of panel (FIG. 3F).
Cell culture of human PBMC-derived primary macrophages. […]

phospho-RSK1-Ser380 = experiment: Anti-RSK1 immunoprecipitation and immunoblot in IFN-γ-stimulated PBMC-derived macrophages; type: cell-based, human; details: 10 μM pre-treatment two hours, IFN-γ up to 90 minutes, serum starvation
Procedure: as §1, with “N=6 donors. **P<0.01 indicate significance for phosphorylation levels compared to control (treatment with DMSO and IFN-γ) by Dunnett's comparison test. (FIG. 3E) Macrophages were treated with DMSO or BI-d1870 for two hours followed by IFN-γ stimulation under serum starvation. Cell lysates were subjected to immunoprecipitation with normal IgG or anti-STAT1-pSer727 followed by SYPRO ruby stain or immunoblot analysis with the indicated antibodies. Immunoprecipitants in the gel (red square) were in-gel digested for parallel reaction monitoring (PRM) mass spectrometry.” left out, “3F). […]” for “3F).”

## CC(C)(C)c1nc2c3cc[nH]c(=O)c3c3cc(F)ccc3c2[nH]1 [Pyridone-6]
[1]
  phospho-STAT-Ser727 signal: similar
phospho-RSK1-Ser380
  phospho-RSK1-Ser380 signal: marked suppression
